According to patent publication US20040048831A1, “Verifiable absorption drug delivery form based on cyclodextrins” (priority 2002, published 2004):

Assays:
[1] = Release of drugs from paper disk dosage forms in vitro (continuous elution by water, spectrophotometry); assay type: physicochemical; settings: eluted disks dried and eluted by methanol (50 ml) overnight
[2] = as above; assay type: physicochemical; settings: first milliliters of eluent
Protocol: To prepare the dosage form, cyclodextrin was dissolved in water (50% solutions for HPBCD, 20% for gamma-cyclodextrin and sulfopropyl beta-cyclodextrin), or aqueous ethanol for HPBCD (50% solution). This solution was saturated with drug by intensive stirring for two hours. The suspension was then filtered and then spotted on paper or filtration cloth and air dried.
Paper disks of 2 cm diameter and carrying drug: cyclodextrin inclusion complexes in the amounts specified in Table 1 below were continuously eluted by water and the amount of drug eluted was measured by spectrophotometry. For progesterone, a wavelength of 240 nm was used. Data had to be corrected since paper contains a minor component which elutes rapidly and absorbs at this wavelength. Prewashing of paper removes this complication. Amphotericin B content was analyzed using wavelength 410 nm and data previously published (M. Kajtar et al., Biopolymers, 28, 1585-1596, 1989).

[3] = Release of cyclodextrin and drug from paper disk dosage forms in vivo (kept under the tongue, residue extracted); settings: for Progesterone left in disk, % of the originally present progesterone: progesterone:HPBCD paper disk, non-released disk = 100%
Protocol: Paper disks of 2 cm diameter containing only HPBCD were kept under the tongue for 3 to 4 minutes and dried after retrieval. The disks were then extracted by water (50 ml) overnight and soluble carbohydrates in the extracts measured using anthrone reagent (Methods in Carbohydrate Chemistry, Volume 1, page 523, wavelength used 620 nm). HPBCD is reactive toward this reagent. The control paper disk with HPBCD, but not released under the tongue, registered 100 units (arbitrary scale); the empty paper disk registered 1.8 units; disks loaded with HPBCD and released for 3 to 4 minutes under the tongue, 1.6 units.
Paper disks carrying progesterone:HPBCD combination, prepared as in Example 2 were kept under the tongue and, after retrieval, dried and extracted by water (50 ml) overnight. Progesterone in the extracts was measured by spectrophotometry using methods and precautions as in Example 2. When progesterone extracted from the original disks (i.e., not released under tongue) is taken as 100%, disks which were released for 5 minutes under the tongue yielded 3.8% of the originally present progesterone, and disks released for 10 minutes, 3.2%. Several minutes under the tongue thus releases nearly all drug into the oral cavity.

| SMILES | Additional drug release from eluted, dried disks by methanol [1] | Completeness of release of drug by water from cyclodextrin paper disks [2] | Time for release of HPBCD into mouth ([3]; paper disk under the tongue) | Progesterone left in disk, % of the originally present progesterone ([3]; released 5 minutes under the tongue) | Progesterone left in disk, % of the originally present progesterone ([3]; released 10 minutes under the tongue) |
| --- | --- | --- | --- | --- | --- |
| C[C@@H]1[C@H](O)[C@@H](C)/C=C/C=C/C=C/C=C/C=C/C=C/C=C/[C@H](O[C@@H]2O[C@H](C)[C@@H](O)[C@H](N)[C@@H]2O)C[C@@H]2O[C@](O)(C[C@@H](O)C[C@@H](O)[C@H](O)CC[C@@H](O)C[C@@H](O)CC(=O)O[C@H]1C)C[C@H](O)[C@H]2C(=O)O [Amphotericin B] | further drug was release | only partial | – | – | – |
| CC(O)COC[C@H]1O[C@@H]2O[C@H]3[C@H](O)[C@@H](O)[C@@H](O[C@H]4[C@H](O)[C@@H](O)[C@@H](O[C@H]5[C@H](O)[C@@H](O)[C@@H](O[C@H]6[C@H](O)[C@@H](O)[C@@H](O[C@H]7[C@H](O)[C@@H](O)[C@@H](O[C@H]8[C@H](O)[C@@H](O)[C@@H](O[C@H]1[C@H](O)[C@H]2O)O[C@@H]8COCC(C)O)O[C@@H]7COCC(C)O)O[C@@H]6COCC(C)O)O[C@@H]5COCC(C)O)O[C@@H]4COCC(C)O)O[C@@H]3COCC(C)O (stereo partly drawn) [HPBCD, hydroxypropyl beta-cyclodextrin] | – | – | completed within a few minutes | – | – |
| CC(=O)[C@H]1CC[C@H]2[C@@H]3CCC4=CC(=O)CC[C@]4(C)[C@H]3CC[C@]12C [Progesterone] | No additional release was observed | complete | – | 3.8% | 3.2% |
